Data as given in publication PMC3605511, “Tumor P-Glycoprotein Correlates with Efficacy of PF-3758309 in in vitro and in vivo Models of Colorectal Cancer” (Frontiers in Pharmacology, 2013).
Several values for one entry are separate records, joined by “and”; a condition that tells them apart may be missing. Equal entries are not always repeated. Where two headings read alike, the source gives them in different places.

Assay: End of study tumor and plasma concentrations (LC/MS/MS)
Type: in vivo, mice
Details: for Plasma concentration / Tumor concentration / Tumor: plasma ratio / concentration at 1 h / Kp at 1 h: end of study, 1 h post treatment, individual animals; for Plasma concentration / Tumor concentration / concentration at 1 h: 25 mg/kg PO BID; for concentration at 1 h: po; for Kp at 1 h: tumor and plasma, read-out: Tumor: plasma ratio
Experimental: Plasma and tumor samples were collected 1 h post treatment at the end of therapeutic studies or 6 h post treatment for P-gp tumor concentration studies. PF-309 was measured in mouse plasma and tumor tissue using a validated LC/MS/MS assay carried out by the University of Colorado Cancer Center Pharmacology Shared Resource. Positive ion electrospray ionization (ESI) mass spectra were obtained with a 3200 QTrap triple quadrupole mass spectrometer (Applied Biosystems Inc., Foster City, CA, USA) with a turboionspray source interfaced to an Agilent 1200 Series binary HPLC system (Agilent Technologies Inc., Santa Clara, CA, USA), and a HTC-PAL auto-sampler (LEAP Technologies, Carrboro, NC, USA). Samples were chromatographed with a Waters Sunfire 2.5 μm C18 column (4.6 × 50 mm; Waters Corp., Milford, MA, USA) with a Phenomenex C18 filter frit guard cartridge (Phenomenex, Torrance, CA, USA). The LC elution was done with a gradient starting at 10% Acetonitrile with 0.1% formic acid:90% 0.1% formic acid held for 1.5 min followed by a 1-min linear gradient to 98% Acetonitrile with 0.1% formic acid: 2% 0.1% formic acid at a flow rate of 750 μl/min and a sample volume of 50 μl. The total analysis time was 5.5 min.
The mass spectrometer settings were: source temperature, 600°C, ion spray voltage, 4500 V, source gas, 50, curtain gas (CUR), 10, collision gas (CAD), low, and needle position 3. Transition specific parameters used were 491.2 → 284.2/491.2 → 148.3/372.2 → 176.1: declustering potential (DP), 46.32/46.54/56.86 V, exit potential (EP), 6.45/3.23/4.08 V, collision cell entrance potential (CEP), 25.92/27.80/20.56 V, collision energy (CE), 40.00/53.10/32.75 V, collision cell exit potential (CXP), 0.42/1.47/2.72 V. Samples were quantified by the internal standard reference method in the MRM mode by monitoring for PF-3758309 transitions of m/z 491.2 → 284.2 and 491.2 → 148.3, and for the internal standard (trazodone) of m/z 372.2 → 176.1. Unknown, standard and quality control samples were extracted from mouse plasma or tumor homogenates (100 mg/ml) by the sequential addition of 5 μl 500 ng/ml internal standard (trazodone), 250 μl acetonitrile:methanol (3:1) to 50 μl plasma/tumor homogenate. Samples were then vortexed for 5 min followed by centrifugation for 10 min at 17,000 rpm. 200 μl of supernatant was then transferred to a microcentrifuge tube followed by the addition of 400 μl 0.1% formic acid followed by vortexing (5 min) and centrifugation (5 min at 13,300 rpm) and the supernatant collected (600 μl) and transferred to auto-sampler vials. The average accuracy and precision based on analysis of quality control samples was 93.1 and 98.7% for plasma samples (range: 1–2500 ng/mL) and 91.9 and 98.2% for tumor (range: 5–5000 ng/mL).
In addition to the cell line xenografts, we also treated 12 different patient derived tumor xenograft (PDTX) CRC models with PF-309 (Figure 6). We were unable to assess how ABCB1 gene expression correlated with efficacy in these models. The PDTX models are propagated in vivo, are not immortalized, and are not grown in in vitro culture. Therefore, we have observed some changes in ABCB1 gene expression in some of our models over time and the direction of the change is not consistent (data not shown). In lieu of analyzing gene expression profiles, we sought to determine if tumor concentration correlated with in vivo response. Tumor and plasma sample pairs were collected from animals at the end of study for eight tumor models (three cell line xenografts and five PDTX models) and concentrations of PF-309 were measured. […] Significant correlations (p < 0.003) were found between both tumor concentration and response and tumor to plasma ratios and response (Table 3).

In the case of `Cc1nc(Nc2n[nH]c3c2CN(C(=O)N[C@H](CN(C)C)c2ccccc2)C3(C)C)c2sccc2n1` [PF-309], the Plasma concentration (CUCRC006 model, 25 mg/kg) is reported as 24.4 ng/mL, the Tumor concentration (CUCRC006 model, 25 mg/kg) is reported as 3.4 ng/g and the “Tumor: plasma ratio” value (CUCRC006 model) is reported as 0.14. For the same molecule, the Plasma concentration (CUCRC026 model, 25 mg/kg) was 25.4 ng/mL and 114 ng/mL and 69.3 ng/mL and 184 ng/mL, the Tumor concentration (CUCRC026 model, 25 mg/kg) was 6.4 ng/g and 14.5 ng/g and 22.7 ng/g and 16.8 ng/g and the “Tumor: plasma ratio” value (CUCRC026 model) was 0.25 and 0.13 and 0.33 and 0.09. For the same molecule, the Plasma concentration (CUCRC036 model, 25 mg/kg) was 40.6 ng/mL and 110 ng/mL and 81.3 ng/mL, the Tumor concentration (CUCRC036 model, 25 mg/kg) was 65.7 ng/g and 30.7 ng/g and 47.6 ng/g and the “Tumor: plasma ratio” value (CUCRC036 model) was 1.62 and 0.28 and 0.59. The Plasma concentration (CUCRC042 model, 25 mg/kg) was 1.17 ng/mL and 4.58 ng/mL, the Tumor concentration (CUCRC042 model, 25 mg/kg) was 29.6 ng/g and the “Tumor: plasma ratio” value (CUCRC042 model) was 29.8 and 6.46. For the same molecule, the Plasma concentration (CUCRC047 model, 25 mg/kg) was 98.7 ng/mL, the Tumor concentration (CUCRC047 model, 25 mg/kg) was 7.5 ng/g and the “Tumor: plasma ratio” value (CUCRC047 model) was 0.08. For the same molecule, the Plasma concentration (Colo201 model, 25 mg/kg) was 11.7 ng/mL, the Tumor concentration (Colo201 model, 25 mg/kg) was 140.4 ng/g and 11.1 ng/g and the “Tumor: plasma ratio” value (Colo201 model) was 6.72 and 0.95. The Plasma concentration (GEO model, 25 mg/kg) was 5.48 ng/mL and 54.1 ng/mL and 76.6 ng/mL, the Tumor concentration (GEO model, 25 mg/kg) was 10.2 ng/g and 15.9 ng/g and 22.9 ng/g and the “Tumor: plasma ratio” value (GEO model) was 1.9 and 0.3. For the same molecule, the Plasma concentration (HCT15 model, 25 mg/kg) was 10.0 ng/mL and 13.2 ng/mL and 49.0 ng/mL, the Tumor concentration (HCT15 model, 25 mg/kg) was 8.9 ng/g and 8.0 ng/g and the “Tumor: plasma ratio” value (HCT15 model) was 0.68 and 0.67 and 0.16. It also gave a Cmax (mouse, plasma, oral, 25 mg/kg, mice, Cmax (1 h), read-out: total plasma concentrations at the Cmax) of 10 to 100 nM, a concentration at 1 h (mouse, plasma, 25 mg/kg, CUCRC006 model, read-out: Plasma concentration) of 42.4 ng/mL and a concentration at 1 h (mouse, plasma, 25 mg/kg, CUCRC047 model, read-out: Plasma concentration) of 110 ng/mL. The concentration at 1 h (mouse, plasma, 25 mg/kg, Colo201 model, read-out: Plasma concentration) was 20.9 ng/mL, the Kp at 1 h (mouse, oral, 25 mg/kg, CUCRC006 model) was 0.08 and the Kp at 1 h (mouse, oral, 25 mg/kg, CUCRC047 model) was 0.04. It also gave a concentration at 1 h (mouse, tumor, 25 mg/kg, CUCRC006 model, read-out: Tumor concentration) of 3.6 ng/g, a concentration at 1 h (mouse, tumor, 25 mg/kg, CUCRC042 model, read-out: Tumor concentration) of 34.8 ng/g and a concentration at 1 h (mouse, tumor, 25 mg/kg, CUCRC047 model, read-out: Tumor concentration) of 4.4 ng/g. For the same molecule, the concentration at 1 h (mouse, tumor, 25 mg/kg, HCT15 model, read-out: Tumor concentration) was 6.8 ng/g.
